According to ChEMBL document CHEMBL3779870, “Differential metabolism of 3FDT and docetaxel in RLMs, rats, and HLMs” (Eur J Med Chem, 2016):

What was measured:
Plasma [1] = assay: Drug metabolism in Sprague-Dawley rat plasma assessed as metabolite M2 formation at 40 mg/kg, iv administered as single dose after 4 to 24 hrs by HPLC-TIC chromatography; type: ADME, organism-based; conditions: in vivo
Cytochrome P450 2C19 = Cytochrome P450 2C19 (Homo sapiens, UniProt P33261); assay: Drug metabolism assessed as recombinant human CYP2C19 mediated metabolite formation at 10 uM preincubated for 5 mins followed by addition of NADPH measured after 120 mins by HPLC-TIC chromatography; type: ADME; conditions: recombinant enzyme, 2 h
Cytochrome P450 2C19, sequence (P33261 whole entry): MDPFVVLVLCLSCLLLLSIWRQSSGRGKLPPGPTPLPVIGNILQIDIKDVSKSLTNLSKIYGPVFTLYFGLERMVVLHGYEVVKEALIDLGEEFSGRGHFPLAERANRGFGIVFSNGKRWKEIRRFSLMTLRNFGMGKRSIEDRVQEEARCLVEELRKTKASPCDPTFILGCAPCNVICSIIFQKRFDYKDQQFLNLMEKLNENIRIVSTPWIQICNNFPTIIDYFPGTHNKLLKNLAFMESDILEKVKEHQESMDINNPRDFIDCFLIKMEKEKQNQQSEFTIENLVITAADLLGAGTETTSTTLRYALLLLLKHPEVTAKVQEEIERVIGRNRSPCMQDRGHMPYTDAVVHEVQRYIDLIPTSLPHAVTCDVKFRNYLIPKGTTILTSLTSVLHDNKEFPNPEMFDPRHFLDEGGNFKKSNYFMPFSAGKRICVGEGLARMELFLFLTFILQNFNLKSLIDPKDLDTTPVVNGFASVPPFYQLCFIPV

[2] = Total clearance in Sprague-Dawley rat plasma; type: ADME, organism-based
[3] = Drug metabolism in Sprague-Dawley rat urine assessed as metabolite M4 formation at 40 mg/kg, iv administered as single dose after 24 hrs by HPLC-TIC chromatography; type: ADME, organism-based; conditions: in vivo
Plasma [4] = assay: Drug metabolism in Sprague-Dawley rat plasma assessed as metabolite M4 formation at 40 mg/kg, iv administered as single dose after 4 to 24 hrs by HPLC-TIC chromatography; type: ADME, organism-based; conditions: in vivo
Cytochrome P450 3A4 [5] = biological target: T1, Cytochrome P450 3A4 (Homo sapiens, UniProt P08684); assay: Drug metabolism assessed as recombinant human CYP3A4 mediated metabolite M2 formation at 10 uM preincubated for 5 mins followed by addition of NADPH measured after 120 mins by HPLC-TIC chromatography; type: ADME; conditions: recombinant enzyme, 2 h
T1 sequence (P08684 whole entry): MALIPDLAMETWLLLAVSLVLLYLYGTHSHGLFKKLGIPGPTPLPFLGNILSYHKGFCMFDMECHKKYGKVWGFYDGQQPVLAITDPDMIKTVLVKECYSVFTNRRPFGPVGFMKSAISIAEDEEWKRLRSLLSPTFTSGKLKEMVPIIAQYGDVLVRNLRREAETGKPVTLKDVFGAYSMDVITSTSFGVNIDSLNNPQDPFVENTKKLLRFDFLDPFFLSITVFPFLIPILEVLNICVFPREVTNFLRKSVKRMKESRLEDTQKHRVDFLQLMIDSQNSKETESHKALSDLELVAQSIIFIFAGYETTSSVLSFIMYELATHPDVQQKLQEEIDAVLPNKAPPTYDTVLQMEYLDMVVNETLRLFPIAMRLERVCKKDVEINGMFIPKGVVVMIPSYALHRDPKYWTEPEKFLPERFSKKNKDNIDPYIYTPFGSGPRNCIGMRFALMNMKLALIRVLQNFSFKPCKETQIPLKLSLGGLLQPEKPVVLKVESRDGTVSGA

Plasma [6] = assay: Drug metabolism in Sprague-Dawley rat plasma assessed as 7-epi-3FDT formation at 40 mg/kg, iv administered as single dose after 4 to 24 hrs by HPLC-TIC chromatography; type: ADME, organism-based; conditions: in vivo
Cytochrome P450 3A4 [7] = biological target: T1, Cytochrome P450 3A4; assay: Drug metabolism assessed as recombinant human CYP3A4 mediated metabolite M1 formation at 10 uM preincubated for 5 mins followed by addition of NADPH measured after 120 mins by HPLC-TIC chromatography; type: ADME; conditions: recombinant enzyme, 2 h
Cytochrome P450 2C9 = Cytochrome P450 2C9 (Homo sapiens, UniProt P11712); assay: Drug metabolism assessed as recombinant human CYP2C9 mediated metabolite formation at 10 uM preincubated for 5 mins followed by addition of NADPH measured after 120 mins by HPLC-TIC chromatography; type: ADME; conditions: recombinant enzyme, 2 h
Cytochrome P450 2C9, sequence (P11712 whole entry): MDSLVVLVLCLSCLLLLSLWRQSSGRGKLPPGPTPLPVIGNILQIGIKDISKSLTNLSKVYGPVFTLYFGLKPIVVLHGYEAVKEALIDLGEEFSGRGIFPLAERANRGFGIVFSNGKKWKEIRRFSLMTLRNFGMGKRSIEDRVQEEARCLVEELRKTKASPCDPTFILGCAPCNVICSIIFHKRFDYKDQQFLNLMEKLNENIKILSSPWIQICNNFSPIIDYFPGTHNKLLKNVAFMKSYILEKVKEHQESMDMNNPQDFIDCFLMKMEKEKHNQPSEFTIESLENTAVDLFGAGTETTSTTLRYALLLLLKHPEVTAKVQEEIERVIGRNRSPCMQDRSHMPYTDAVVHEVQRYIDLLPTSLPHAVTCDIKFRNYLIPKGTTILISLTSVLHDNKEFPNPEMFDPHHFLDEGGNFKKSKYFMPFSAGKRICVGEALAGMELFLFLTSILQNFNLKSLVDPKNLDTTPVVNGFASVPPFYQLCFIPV

Cytochrome P450 3A5 [8] = biological target: T2, Cytochrome P450 3A5 (Homo sapiens, UniProt P20815); assay: Drug metabolism assessed as recombinant human CYP3A5 mediated metabolite M1 formation at 10 uM preincubated for 5 mins followed by addition of NADPH measured after 120 mins by HPLC-TIC chromatography; type: ADME; conditions: recombinant enzyme, 2 h
T2 sequence (P20815 whole entry): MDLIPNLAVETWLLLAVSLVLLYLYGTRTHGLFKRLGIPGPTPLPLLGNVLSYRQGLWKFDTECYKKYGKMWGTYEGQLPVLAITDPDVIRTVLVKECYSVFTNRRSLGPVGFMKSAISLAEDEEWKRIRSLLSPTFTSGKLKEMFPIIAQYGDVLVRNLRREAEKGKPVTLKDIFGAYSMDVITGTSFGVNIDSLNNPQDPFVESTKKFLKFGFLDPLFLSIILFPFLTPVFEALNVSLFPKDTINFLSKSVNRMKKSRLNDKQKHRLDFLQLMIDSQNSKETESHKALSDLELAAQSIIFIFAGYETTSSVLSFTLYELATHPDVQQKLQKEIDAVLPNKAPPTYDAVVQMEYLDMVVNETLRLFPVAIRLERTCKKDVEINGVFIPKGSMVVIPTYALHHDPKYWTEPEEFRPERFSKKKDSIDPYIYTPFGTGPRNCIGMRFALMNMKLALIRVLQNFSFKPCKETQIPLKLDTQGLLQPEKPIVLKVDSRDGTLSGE

[9] = AUC (0 to t) in Sprague-Dawley rat; type: ADME, organism-based; conditions: in vivo
Cytochrome P450 2E1 = Cytochrome P450 2E1 (Homo sapiens, UniProt P05181); assay: Drug metabolism assessed as recombinant human CYP2E1 mediated metabolite M4 formation at 10 uM preincubated for 5 mins followed by addition of NADPH measured after 120 mins by HPLC-TIC chromatography; type: ADME; conditions: recombinant enzyme, 2 h
Cytochrome P450 2E1, sequence (P05181 whole entry): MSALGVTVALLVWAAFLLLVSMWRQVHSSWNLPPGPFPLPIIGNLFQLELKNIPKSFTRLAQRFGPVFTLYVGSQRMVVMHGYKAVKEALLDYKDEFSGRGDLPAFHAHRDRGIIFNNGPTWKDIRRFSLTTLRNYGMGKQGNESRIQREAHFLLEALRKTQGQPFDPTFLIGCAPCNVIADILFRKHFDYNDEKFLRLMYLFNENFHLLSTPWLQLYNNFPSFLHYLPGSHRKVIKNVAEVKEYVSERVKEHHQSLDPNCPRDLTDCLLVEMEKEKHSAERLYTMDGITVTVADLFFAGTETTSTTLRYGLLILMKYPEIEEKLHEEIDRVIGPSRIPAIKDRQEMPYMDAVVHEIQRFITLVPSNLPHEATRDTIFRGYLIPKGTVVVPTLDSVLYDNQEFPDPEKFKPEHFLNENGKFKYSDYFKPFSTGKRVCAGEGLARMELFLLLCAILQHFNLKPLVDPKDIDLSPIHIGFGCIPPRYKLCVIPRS

Cytochrome P450 3A4 [10] = biological target: T1, Cytochrome P450 3A4; assay: Drug metabolism assessed as recombinant human CYP3A4 mediated metabolite M3 formation at 10 uM preincubated for 5 mins followed by addition of NADPH measured after 120 mins by HPLC-TIC chromatography; type: ADME; conditions: recombinant enzyme, 2 h
Plasma [11] = assay: Drug metabolism in Sprague-Dawley rat plasma assessed as metabolite M3 formation at 40 mg/kg, iv administered as single dose after 4 to 24 hrs by HPLC-TIC chromatography; type: ADME, organism-based; conditions: in vivo
Cytochrome P450 2C8 = biological target: T3, Cytochrome P450 2C8 (Homo sapiens, UniProt P10632); assay: Drug metabolism assessed as recombinant human CYP2C8 mediated metabolite formation at 10 uM preincubated for 5 mins followed by addition of NADPH measured after 120 mins by HPLC-TIC chromatography; type: ADME; conditions: recombinant enzyme, 2 h
T3 sequence (P10632 whole entry): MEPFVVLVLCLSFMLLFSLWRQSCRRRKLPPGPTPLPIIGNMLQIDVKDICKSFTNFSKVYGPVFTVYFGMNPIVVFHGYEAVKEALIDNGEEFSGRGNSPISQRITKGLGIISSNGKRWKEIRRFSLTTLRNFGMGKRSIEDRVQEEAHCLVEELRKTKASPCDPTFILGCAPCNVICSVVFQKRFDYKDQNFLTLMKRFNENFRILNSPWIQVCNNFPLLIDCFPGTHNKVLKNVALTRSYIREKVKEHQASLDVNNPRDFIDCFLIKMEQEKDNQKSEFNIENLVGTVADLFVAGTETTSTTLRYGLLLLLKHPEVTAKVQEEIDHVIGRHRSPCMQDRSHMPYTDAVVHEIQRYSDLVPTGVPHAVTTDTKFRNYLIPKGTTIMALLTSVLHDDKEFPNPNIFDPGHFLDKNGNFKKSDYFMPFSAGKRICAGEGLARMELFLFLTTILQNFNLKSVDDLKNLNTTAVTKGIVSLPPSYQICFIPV

[12] = Drug metabolism in Sprague-Dawley rat feces assessed as metabolite M8 formation at 40 mg/kg, iv administered as single dose after 24 hrs by HPLC-TIC chromatography; type: ADME, organism-based; conditions: in vivo
[13] = Drug metabolism in Sprague-Dawley rat urine assessed as metabolite M2 formation at 40 mg/kg, iv administered as single dose after 24 hrs by HPLC-TIC chromatography; type: ADME, organism-based; conditions: in vivo
Cytochrome P450 2D6 = Cytochrome P450 2D6 (Homo sapiens, UniProt P10635); assay: Drug metabolism assessed as recombinant human CYP2D6 mediated metabolite formation at 10 uM preincubated for 5 mins followed by addition of NADPH measured after 120 mins by HPLC-TIC chromatography; type: ADME; conditions: recombinant enzyme, 2 h
Cytochrome P450 2D6, sequence (P10635 whole entry): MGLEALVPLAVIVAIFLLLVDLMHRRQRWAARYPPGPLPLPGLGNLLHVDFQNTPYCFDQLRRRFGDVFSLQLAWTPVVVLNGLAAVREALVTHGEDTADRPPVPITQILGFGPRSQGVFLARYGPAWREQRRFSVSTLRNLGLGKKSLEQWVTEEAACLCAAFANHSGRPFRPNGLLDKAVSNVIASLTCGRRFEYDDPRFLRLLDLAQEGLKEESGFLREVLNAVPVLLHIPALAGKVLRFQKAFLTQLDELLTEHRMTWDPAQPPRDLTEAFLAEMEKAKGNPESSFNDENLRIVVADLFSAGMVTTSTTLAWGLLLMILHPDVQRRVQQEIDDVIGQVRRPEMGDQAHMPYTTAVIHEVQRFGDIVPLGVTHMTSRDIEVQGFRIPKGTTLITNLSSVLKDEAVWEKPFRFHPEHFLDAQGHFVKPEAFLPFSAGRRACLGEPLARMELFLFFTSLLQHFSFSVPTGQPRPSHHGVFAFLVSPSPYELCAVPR

[14] = Drug metabolism in Sprague-Dawley rat feces assessed as metabolite M3 formation at 40 mg/kg, iv administered as single dose after 24 hrs by HPLC-TIC chromatography; type: ADME, organism-based; conditions: in vivo
[15] = Drug metabolism in Sprague-Dawley rat feces assessed as metabolite M7 formation at 40 mg/kg, iv administered as single dose after 24 hrs by HPLC-TIC chromatography; type: ADME, organism-based; conditions: in vivo
Cytochrome P450 3A5 [16] = biological target: T2, Cytochrome P450 3A5; assay: Drug metabolism assessed as recombinant human CYP3A5 mediated metabolite M2 formation at 10 uM preincubated for 5 mins followed by addition of NADPH measured after 120 mins by HPLC-TIC chromatography; type: ADME; conditions: recombinant enzyme, 2 h
Cytochrome P450 2B6 = biological target: T4, Cytochrome P450 2B6 (Homo sapiens, UniProt P20813); assay: Drug metabolism assessed as recombinant human CYP2B6 mediated metabolite formation at 10 uM preincubated for 5 mins followed by addition of NADPH measured after 120 mins by HPLC-TIC chromatography; type: ADME; conditions: recombinant enzyme, 2 h
T4 sequence (P20813 whole entry): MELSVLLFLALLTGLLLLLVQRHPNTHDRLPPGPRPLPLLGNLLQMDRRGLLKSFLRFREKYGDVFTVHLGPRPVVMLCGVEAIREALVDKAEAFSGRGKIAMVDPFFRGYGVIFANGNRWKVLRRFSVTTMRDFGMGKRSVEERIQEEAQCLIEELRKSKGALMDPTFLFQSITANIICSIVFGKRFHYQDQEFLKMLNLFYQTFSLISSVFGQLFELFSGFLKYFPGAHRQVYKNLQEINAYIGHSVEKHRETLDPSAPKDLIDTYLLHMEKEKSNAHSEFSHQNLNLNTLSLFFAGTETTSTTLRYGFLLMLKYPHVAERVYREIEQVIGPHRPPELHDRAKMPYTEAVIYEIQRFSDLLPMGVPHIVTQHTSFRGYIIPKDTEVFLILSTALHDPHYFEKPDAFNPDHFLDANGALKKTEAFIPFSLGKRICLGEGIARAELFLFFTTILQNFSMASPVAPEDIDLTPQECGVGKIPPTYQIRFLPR

[17] = Drug metabolism in Sprague-Dawley rat urine assessed as metabolite M1 formation at 40 mg/kg, iv administered as single dose after 24 hrs by HPLC-TIC chromatography; type: ADME, organism-based; conditions: in vivo
[18] = Drug metabolism in Sprague-Dawley rat feces assessed as metabolite M4 formation at 40 mg/kg, iv administered as single dose after 24 hrs by HPLC-TIC chromatography; type: ADME, organism-based; conditions: in vivo
[19] = AUC (0 to infinity) in Sprague-Dawley rat; type: ADME, organism-based; parameters: time infinity; conditions: in vivo
Cytochrome P450 2A6 = biological target: T5, Cytochrome P450 2A6 (Homo sapiens, UniProt P11509); assay: Drug metabolism assessed as recombinant human CYP2A6 mediated metabolite formation at 10 uM preincubated for 5 mins followed by addition of NADPH measured after 120 mins by HPLC-TIC chromatography; type: ADME; conditions: recombinant enzyme, 2 h
T5 sequence (P11509 whole entry): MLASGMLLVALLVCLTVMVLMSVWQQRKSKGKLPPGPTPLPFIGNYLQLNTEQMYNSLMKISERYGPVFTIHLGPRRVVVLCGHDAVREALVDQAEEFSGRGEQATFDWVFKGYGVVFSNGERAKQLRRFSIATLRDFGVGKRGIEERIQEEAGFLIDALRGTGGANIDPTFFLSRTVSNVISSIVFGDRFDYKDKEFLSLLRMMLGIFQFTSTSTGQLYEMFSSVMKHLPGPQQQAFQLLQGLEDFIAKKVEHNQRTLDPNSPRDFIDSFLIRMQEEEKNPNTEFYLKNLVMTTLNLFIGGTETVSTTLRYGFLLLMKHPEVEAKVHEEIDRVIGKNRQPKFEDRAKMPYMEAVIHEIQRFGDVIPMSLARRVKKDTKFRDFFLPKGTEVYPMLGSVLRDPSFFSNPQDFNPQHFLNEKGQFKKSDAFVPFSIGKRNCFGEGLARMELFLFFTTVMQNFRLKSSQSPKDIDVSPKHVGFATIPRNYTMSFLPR

[20] = Drug metabolism in Sprague-Dawley rat feces assessed as 7-epi-3FDT formation at 40 mg/kg, iv administered as single dose after 24 hrs by HPLC-TIC chromatography; type: ADME, organism-based; conditions: in vivo
[21] = Apparent volume of distribution in Sprague-Dawley rat; type: ADME, organism-based; conditions: in vivo, read-out: Vd(app)
[22] = Cytotoxicity against human SKOV3 cells; type: functional, cell-based; conditions: SK-OV-3
[23] = Drug metabolism in Sprague-Dawley rat urine assessed as metabolite M3 formation at 40 mg/kg, iv administered as single dose after 24 hrs by HPLC-TIC chromatography; type: ADME, organism-based; conditions: in vivo
Cytochrome P450 1A2 = biological target: T6, Cytochrome P450 1A2 (Homo sapiens, UniProt P05177); assay: Drug metabolism assessed as recombinant human CYP1A2 mediated metabolite formation at 10 uM preincubated for 5 mins followed by addition of NADPH measured after 120 mins by HPLC-TIC chromatography; type: ADME; conditions: recombinant enzyme, 2 h
T6 sequence (P05177 whole entry): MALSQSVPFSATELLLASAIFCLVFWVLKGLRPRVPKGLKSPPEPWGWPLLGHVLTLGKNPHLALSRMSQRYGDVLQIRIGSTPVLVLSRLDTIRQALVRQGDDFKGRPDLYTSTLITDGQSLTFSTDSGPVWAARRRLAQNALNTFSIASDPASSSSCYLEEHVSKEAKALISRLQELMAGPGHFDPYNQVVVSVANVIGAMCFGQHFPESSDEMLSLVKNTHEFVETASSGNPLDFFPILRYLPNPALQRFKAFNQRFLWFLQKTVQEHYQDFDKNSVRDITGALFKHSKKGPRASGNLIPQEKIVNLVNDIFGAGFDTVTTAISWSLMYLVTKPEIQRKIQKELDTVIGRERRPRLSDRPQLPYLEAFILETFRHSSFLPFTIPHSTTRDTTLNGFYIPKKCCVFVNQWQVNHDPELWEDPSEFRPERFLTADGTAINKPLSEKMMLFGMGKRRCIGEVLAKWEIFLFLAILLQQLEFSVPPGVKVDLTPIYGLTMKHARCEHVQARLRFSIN

[24] = Drug metabolism in Sprague-Dawley rat urine assessed as 7-epi-3FDT formation at 40 mg/kg, iv administered as single dose after 24 hrs by HPLC-TIC chromatography; type: ADME, organism-based; conditions: in vivo
[25] = Drug metabolism in Sprague-Dawley rat feces assessed as metabolite M2 formation at 40 mg/kg, iv administered as single dose after 24 hrs by HPLC-TIC chromatography; type: ADME, organism-based; conditions: in vivo
Plasma [26] = assay: Drug metabolism in Sprague-Dawley rat plasma assessed as metabolite M1 formation at 40 mg/kg, iv administered as single dose after 4 to 24 hrs by HPLC-TIC chromatography; type: ADME, organism-based; conditions: in vivo
[27] = Drug metabolism in Sprague-Dawley rat feces assessed as metabolite M6 formation at 40 mg/kg, iv administered as single dose after 24 hrs by HPLC-TIC chromatography; type: ADME, organism-based; conditions: in vivo

CC(=O)O[C@@]12CO[C@@H]1C[C@H](O)[C@@]1(C)C(=O)[C@H](O)C3=C(C)[C@@H](OC(=O)[C@H](O)[C@@H](NC(=O)OC(C)(C)C(F)(F)F)c4ccccc4)C[C@@](O)([C@@H](OC(=O)c4ccccc4)C12)C3(C)C (stereo not given in full)
Drug metabolism (Plasma [1]): metabolite_notdetected
Drug metabolism (Cytochrome P450 2C19): metabolite_notdetected
clearance [2]: 21 mL/min/kg
Drug metabolism [3]: metabolite_detected
Drug metabolism (Plasma [4]): metabolite_detected
Drug metabolism (Cytochrome P450 3A4 [5]): metabolite_detected
Drug metabolism (Plasma [6]): metabolite_detected
Drug metabolism (Cytochrome P450 3A4 [7]): metabolite_detected
Drug metabolism (Cytochrome P450 2C9): metabolite_notdetected
Drug metabolism (Cytochrome P450 3A5 [8]): metabolite_detected
AUC(0-t) [9]: 3860 ng·h/mL
Drug metabolism (Cytochrome P450 2E1): metabolite_detected
Drug metabolism (Cytochrome P450 3A4 [10]): metabolite_detected
Drug metabolism (Plasma [11]): metabolite_notdetected
Drug metabolism (Cytochrome P450 2C8): metabolite_notdetected
Drug metabolism [12]: metabolite_detected
Drug metabolism [13]: metabolite_notdetected
Drug metabolism (Cytochrome P450 2D6): metabolite_notdetected
Drug metabolism [14]: metabolite_detected
Drug metabolism [15]: metabolite_detected
Drug metabolism (Cytochrome P450 3A5 [16]): metabolite_detected
Drug metabolism (Cytochrome P450 2B6): metabolite_notdetected
Drug metabolism [17]: metabolite_notdetected
Drug metabolism [18]: metabolite_detected
AUC(0-inf) [19]: 3960 ng·h/mL
Drug metabolism (Cytochrome P450 2A6): metabolite_notdetected
Drug metabolism [20]: metabolite_detected
Vd [21]: 18.1 L/kg
IC50 [22]: 0.01 nM
Drug metabolism [23]: metabolite_notdetected
Drug metabolism (Cytochrome P450 1A2): metabolite_notdetected
Drug metabolism [24]: metabolite_detected
Drug metabolism [25]: metabolite_detected
Drug metabolism (Plasma [26]): metabolite_notdetected
Drug metabolism [27]: metabolite_detected
